The target of experiment [1] is T1, Coagulation factor XII (Homo sapiens) (UniProt P00748).
T1 sequence (whole entry): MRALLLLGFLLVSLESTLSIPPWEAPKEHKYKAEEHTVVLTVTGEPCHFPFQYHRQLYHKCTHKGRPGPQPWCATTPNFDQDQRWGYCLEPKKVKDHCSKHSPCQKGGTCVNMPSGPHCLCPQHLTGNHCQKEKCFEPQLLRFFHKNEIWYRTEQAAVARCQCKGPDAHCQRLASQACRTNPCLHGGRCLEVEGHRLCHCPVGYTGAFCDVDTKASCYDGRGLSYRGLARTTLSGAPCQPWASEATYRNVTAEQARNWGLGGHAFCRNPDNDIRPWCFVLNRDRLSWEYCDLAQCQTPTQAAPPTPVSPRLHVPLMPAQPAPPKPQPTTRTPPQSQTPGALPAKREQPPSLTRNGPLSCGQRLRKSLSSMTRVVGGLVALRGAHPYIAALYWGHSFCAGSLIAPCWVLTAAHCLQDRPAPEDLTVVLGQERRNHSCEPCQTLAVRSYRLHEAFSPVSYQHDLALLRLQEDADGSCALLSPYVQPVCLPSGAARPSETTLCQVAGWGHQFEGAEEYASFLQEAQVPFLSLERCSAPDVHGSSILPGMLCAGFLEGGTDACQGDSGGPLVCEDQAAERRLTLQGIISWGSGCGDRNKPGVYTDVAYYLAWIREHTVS
In words: Inhibition of human factor 12a at 50 uM.

Experiment [2] concerns the target T2, Plasma kallikrein (Homo sapiens, UniProt P03952). Put plainly: Inhibition of human kallikrein.
Experiment [3] addresses T3, Prothrombin (Homo sapiens, UniProt P00734). In words: Inhibition of human thrombin.
For experiment [4], the target named is T4, Coagulation factor X (Homo sapiens, UniProt P00742). Put plainly: Inhibition of human factor 10a.
Experiment [5] has as its target Coagulation factor VII/tissue factor (Homo sapiens, UniProt P08709). Put plainly: Inhibition of human tissue factor/factor 7a. It counts as protein-complex assay.
The target in experiment [6] is T1, Coagulation factor XII (Homo sapiens). In words: Inhibition of human factor 12a assessed as residual activity at 49.5 uM. The note with it: TDE = time-dependent effect.
Experiment [7] has as its target T4, Coagulation factor X. Put plainly: Inhibition of human factor 10a at 50 uM.
The target in experiment [8] is Coagulation factor VII/tissue factor (Homo sapiens) (UniProt P08709+P13726). In words: Inhibition of human tissue factor/factor 7a at 50 uM.
Experiment [9] addresses T2, Plasma kallikrein. Put plainly: Inhibition of human kallikrein at 50 uM.
In experiment [10] the target is T3, Prothrombin. Put plainly: Inhibition of human thrombin at 50 uM.
Another experiment has as its target T5, Coagulation factor XII (Homo sapiens, UniProt P00748).
T5 sequence (P00748 whole entry): T1 sequence (whole entry)
Put plainly: Inhibition of human factor 12a.

Active and inactive are the calls of the source. The rule behind the calls is not given here.

Coagulation factor VII/tissue factor, sequence (P08709 61-212 limits assumed): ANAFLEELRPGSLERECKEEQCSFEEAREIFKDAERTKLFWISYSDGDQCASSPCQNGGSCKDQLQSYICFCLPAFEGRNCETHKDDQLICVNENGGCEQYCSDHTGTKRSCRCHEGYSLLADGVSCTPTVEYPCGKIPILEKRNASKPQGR
Coagulation factor VII/tissue factor, sequence (P08709 213-466 limits assumed): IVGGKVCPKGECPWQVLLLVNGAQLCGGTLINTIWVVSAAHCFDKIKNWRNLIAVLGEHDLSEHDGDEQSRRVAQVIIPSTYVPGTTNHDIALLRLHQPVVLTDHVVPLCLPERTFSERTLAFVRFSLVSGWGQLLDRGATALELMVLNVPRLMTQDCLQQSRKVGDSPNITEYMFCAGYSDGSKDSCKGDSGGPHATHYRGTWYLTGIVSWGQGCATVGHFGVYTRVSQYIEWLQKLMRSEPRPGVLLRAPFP
Coagulation factor VII/tissue factor, sequence (P13726 33-295 partner limits assumed): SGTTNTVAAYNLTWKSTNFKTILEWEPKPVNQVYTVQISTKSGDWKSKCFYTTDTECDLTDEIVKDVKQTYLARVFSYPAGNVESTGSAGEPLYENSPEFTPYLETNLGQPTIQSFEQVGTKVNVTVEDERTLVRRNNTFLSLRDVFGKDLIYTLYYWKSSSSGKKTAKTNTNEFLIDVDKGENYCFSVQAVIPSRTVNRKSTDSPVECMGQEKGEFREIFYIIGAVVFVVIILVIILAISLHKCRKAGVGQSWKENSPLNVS
T2 sequence (P03952 20-390 limits assumed): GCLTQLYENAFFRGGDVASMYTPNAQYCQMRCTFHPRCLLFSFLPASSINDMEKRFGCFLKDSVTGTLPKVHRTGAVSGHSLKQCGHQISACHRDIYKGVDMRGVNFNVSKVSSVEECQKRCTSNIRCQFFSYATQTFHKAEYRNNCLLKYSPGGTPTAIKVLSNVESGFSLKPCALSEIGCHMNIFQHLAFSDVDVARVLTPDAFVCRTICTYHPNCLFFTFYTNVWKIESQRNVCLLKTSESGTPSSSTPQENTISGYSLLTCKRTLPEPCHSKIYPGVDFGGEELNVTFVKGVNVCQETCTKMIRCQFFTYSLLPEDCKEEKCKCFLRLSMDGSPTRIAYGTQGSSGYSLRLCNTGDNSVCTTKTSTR
T2 sequence (P03952 391-638 limits assumed): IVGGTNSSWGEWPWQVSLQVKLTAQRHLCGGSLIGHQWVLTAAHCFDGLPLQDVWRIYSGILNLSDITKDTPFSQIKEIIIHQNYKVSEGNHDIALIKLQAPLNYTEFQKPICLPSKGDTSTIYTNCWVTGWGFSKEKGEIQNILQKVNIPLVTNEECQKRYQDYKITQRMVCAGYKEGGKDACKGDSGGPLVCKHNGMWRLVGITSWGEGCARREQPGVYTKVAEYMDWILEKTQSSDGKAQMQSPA
T4 sequence (P00742 41-179 limits assumed): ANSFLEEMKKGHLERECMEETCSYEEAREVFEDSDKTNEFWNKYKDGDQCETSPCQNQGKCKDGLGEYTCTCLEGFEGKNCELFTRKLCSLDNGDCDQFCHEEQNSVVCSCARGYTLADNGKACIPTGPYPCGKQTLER
T4 sequence (P00742 235-488 limits assumed): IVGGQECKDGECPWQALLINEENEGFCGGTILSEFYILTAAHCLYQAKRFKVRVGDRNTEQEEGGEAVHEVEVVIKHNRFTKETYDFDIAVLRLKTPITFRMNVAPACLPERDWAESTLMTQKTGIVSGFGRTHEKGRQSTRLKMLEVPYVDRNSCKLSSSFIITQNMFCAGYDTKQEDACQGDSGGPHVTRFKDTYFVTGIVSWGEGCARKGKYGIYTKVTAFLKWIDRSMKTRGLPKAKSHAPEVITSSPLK

For `O=C(Nc1ccccc1)c1cc2c(ccc3ccccc32)oc1=O`, in [1], the result was inactive. For the same compound, the IC50 (against Plasma kallikrein [2]; against Prothrombin [3]; against Coagulation factor X [4]; in [5]) was above 50 µM throughout.
For `O=C(Nc1ccccc1)c1cc2cc(Cl)cc(Br)c2oc1=O`, the Activity entry in experiment [6] is “tde”. Besides, the result (at Coagulation factor X [7]; in [8]; at Plasma kallikrein [9]; on Prothrombin [10]) was inactive. Further, the IC50 at Coagulation factor XII amounted to 4.4 µM.
With `Cc1cc(C)cc(NC(=O)c2cc3cc(Cl)cc(Br)c3oc2=O)c1`, the IC50 against Plasma kallikrein [2] was above 50 µM; against Prothrombin [3] it was above 50 µM; against Coagulation factor X [4], above 50 µM; in experiment [5], above 50 µM; at Coagulation factor XII, 32 µM.
Take `Cc1cc(C)cc(NC(=O)c2cc3cc(Cl)cc(Cl)c3oc2=O)c1`: the IC50 was above 50 µM at Plasma kallikrein [2]; above 50 µM against Prothrombin [3]; above 50 µM on Coagulation factor X [4]; above 50 µM in experiment [5]; 4.3 µM at Coagulation factor XII.

The term IC50 denotes the midpoint of a concentration-inhibition curve. Higher therefore signals lower potency.
